{"source": "patent US20240317743A1", "about": "“Solid Forms of BCL-2 Inhibitors, Method of Preparation, and Use Thereof” (BeiGene, Ltd., priority 2021, published 2024)", "assay_type_in_all_cases": "physicochemical", "key": {"[1]": {"assay": "Solid form solubility, concentration by HPLC at 24 hours", "method": "The solubility of Compound 1 in different physical forms was tested in water, 0.1 N HCl, pH 4.5 acetate buffer and pH 6.8 phosphate buffer. At 24 hours of time point, the concentration of Compound 1 was detected by HPLC."}, "[2]": {"assay": "DVS (Method A) water uptake / hygroscopicity", "conditions": "25° C./80% RH", "method": "DVS of the obtained forms in the present disclosure was measured via an SMS (Surface Measurement Systems) DVS Intrinsic, without special instructions (Method A). The relative humidity at 25° C. was calibrated against deliquescence point of LiCl, Mg(NO3)2 and KCl. Parameters for the DVS test are listed as follows. [table]"}, "[3]": {"assay": "Long term and accelerated physical and chemical stability test, impurities by HPLC", "method": "Long term and accelerated stability studies were conducted in different physical forms of Compound 1, by storing the samples at 25±2° C./60±5% RH and 40±2° C./75±5% RH conditions for up to 6 months. And, the content of the total impurities of each sample was tested by HPLC."}, "[4]": {"assay": "Physical stability: storage under humidity/temperature, form checked by XRPD", "method": "To evaluate the physicochemical stability, store 1˜3 mg of Forms B, S, M, R, F, H and N samples were stored under 25° C./60% RH or 40° C./75% RH conditions for one week (unsealed) or 80° C. condition for 24 hrs (sealed)."}, "[5]": {"assay": "Solid form stability of Form B: slurry or shaking in acetone/H2O system at 50° C., XRPD", "method": "Evaluation of solid form stability of Form B was performed in acetone/H2O system at 50° C. About 2 mg of Form B sample was used to slurry or shake in the acetone/H2O (1:9, v/v) and H2O solution (saturated by amorphous sample)."}, "[6]": {"assay": "Storage at RT, form checked by XRPD overlay", "conditions": "RT, ~3 days", "method": "Form K was speculated as a methyl acetate solvate.\nThus, Form L was speculated as a metastable anhydrate/hydrate which could be de-solvated from the wet cake from the solvent system.\n(peak) before decomposition (FIG. 16B). According to the integration of ^1H NMR result (FIG. 16C), the theoretical weight of chlorobenzene was calculated as 9.8%, which matched with the TGA weight loss. […] After heating the sample to 140° C., more diffraction peaks disappeared. Combined with the TGA, ^1H NMR data and heating experiment, Form P was speculated as a chlorobenzene solvate."}}}
{"compound": "CC(C)c1ccccc1[C@@H]1CCCN1C1CC2(CCN(c3ccc(C(=O)NS(=O)(=O)c4ccc(NCC5CCC(C)(O)CC5)c([N+](=O)[O-])c4)c(Oc4cnc5[nH]ccc5c4)c3)CC2)C1", "note": "(stereo partly drawn) [Compound 1 amorphous, 2-((1H-pyrrolo[2,3-b]pyridin-5-yl)oxy)-N-((4-((((1r,4r)-4-hydroxy-4-methylcyclohexyl)methyl)amino)-3-nitrophenyl)sulfonyl)-4-(2-((S)-2-(2-isopropylphenyl)pyrrolidin-1-yl)-7-azaspiro[3.5]nonan-7-yl)benzamide]", "values": [{"measurement": "solubility", "setting": "[1]; 0.1 N HCl", "result": 35.30, "unit": "µg/mL"}, {"measurement": "solubility", "setting": "[1]; pH 4.5 acetate buffer", "result": "no Compound 1 was detected"}, {"measurement": "solubility", "setting": "[1]; pH 6.8 phosphate buffer", "result": "no Compound 1 was detected"}, {"measurement": "solubility", "setting": "[1]; water", "result": "no Compound 1 was detected"}, {"measurement": "water uptake", "setting": "[2]; listed as amorphous form", "result": 1.8, "unit": "%"}, {"measurement": "change of chemical purity", "setting": "[3]; 25±2° C./60±5% RH and 40±2° C./75±5% RH, up to 6 months", "result": "reduced significantly"}, {"measurement": "total content of impurities", "setting": "[3]; after 6 months at 40±2° C./75±5% RH", "result": 4.2, "unit": "%"}, {"measurement": "total content of impurities", "setting": "[3]; before storage (initial)", "result": 2.10, "unit": "%"}]}
{"compound": "CC(C)c1ccccc1[C@@H]1CCCN1C1CC2(CCN(c3ccc(C(=O)NS(=O)(=O)c4ccc(NCC5CCC(C)(O)CC5)c([N+](=O)[O-])c4)c(Oc4cnc5[nH]ccc5c4)c3)CC2)C1", "note": "(stereo partly drawn) [Form B, 2-((1H-pyrrolo[2,3-b]pyridin-5-yl)oxy)-N-((4-((((1r,4r)-4-hydroxy-4-methylcyclohexyl)methyl)amino)-3-nitrophenyl)sulfonyl)-4-(2-((S)-2-(2-isopropylphenyl)pyrrolidin-1-yl)-7-azaspiro[3.5]nonan-7-yl)benzamide]", "values": [{"measurement": "form change (XRPD overlay)", "setting": "[4]; 25° C./60% RH, one week, unsealed", "result": "no form change"}, {"measurement": "form change (XRPD overlay)", "setting": "[4]; 40° C./75% RH, one week, unsealed", "result": "no form change"}, {"measurement": "form change (XRPD overlay)", "setting": "[4]; 80° C., sealed, 24 hrs", "result": "no form change"}, {"measurement": "crystalline status (XRPD overlay)", "setting": "[5]; shaking in H2O, about 4 hours", "result": "no form change was observed"}, {"measurement": "crystalline status (XRPD overlay)", "setting": "[5]; shaking in H2O, about 4 days", "result": "no form change was observed"}, {"measurement": "crystalline status (XRPD overlay)", "setting": "[5]; shaking in acetone/H2O (1:9, v/v), about 4 hours", "result": "no form change was observed"}, {"measurement": "crystalline status (XRPD overlay)", "setting": "[5]; shaking in acetone/H2O (1:9, v/v), about 4 days", "result": "no form change was observed"}, {"measurement": "crystalline status (XRPD overlay)", "setting": "[5]; slurrying in H2O, about 4 hrs", "result": "no form change was observed"}, {"measurement": "crystalline status (XRPD overlay)", "setting": "[5]; slurrying in H2O, about 4 days", "result": "a decrease of crystallinity was observed"}, {"measurement": "crystalline status (XRPD overlay)", "setting": "[5]; slurrying in acetone/H2O (1:9, v/v), about 4 days", "result": "a decrease of crystallinity was observed"}, {"measurement": "hygroscopicity", "setting": "[2]", "result": "slight hygroscopicity"}, {"measurement": "water uptake", "setting": "[2]", "result": 0.9, "unit": "%"}]}
{"compound": "CC(C)c1ccccc1[C@@H]1CCCN1C1CC2(CCN(c3ccc(C(=O)NS(=O)(=O)c4ccc(NCC5CCC(C)(O)CC5)c([N+](=O)[O-])c4)c(Oc4cnc5[nH]ccc5c4)c3)CC2)C1", "note": "(stereo partly drawn) [Form T, 2-((1H-pyrrolo[2,3-b]pyridin-5-yl)oxy)-N-((4-((((1r,4r)-4-hydroxy-4-methylcyclohexyl)methyl)amino)-3-nitrophenyl)sulfonyl)-4-(2-((S)-2-(2-isopropylphenyl)pyrrolidin-1-yl)-7-azaspiro[3.5]nonan-7-yl)benzamide]", "values": [{"measurement": "form change on storage", "setting": "[6]", "result": "convert back to Form N"}]}
